In brackets after ≈: the same amount, converted by molar mass. Read-outs that look alike come from different tables or passages of the source.
Key:
Format in all cases: cell-based
[1] = tested on: Pseudomonas aeruginosa NCTC 10490; assay: antimicrobial activity, serial dilution method on agar plate
Method in brief: (§1)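 Agar-plate serial dilution in Heart Infusion agar; inocula prepared at 1×10^8 cells/ml (O.D. 660 mμ=0.07 to 0.16) and at 1×10^6 cells/ml by dilution. Values are minimum inhibitory concentrations in mcg/ml.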

[2] = tested on: Streptococcus pneumoniae Type II; assay: as above
Method in brief: as §1

[3] = tested on: Enterobacter aerogenes IFO 12979; assay: as above; details: Klebsiella aerogenes
Method in brief: as §1

[4] = tested on: Pseudomonas aeruginosa ATCC 10145; assay: as above
Method in brief: as §1

[5] = tested on: Staphylococcus aureus FDA 209 P; assay: as above
Method in brief: as §1

[6] = tested on: Corinebacterium diphteriae; assay: as above
Method in brief: as §1

[7] = tested on: Test Organism 16 (Pseudomonas maltophilia IFO 12692); assay: influence of the addition of horse serum on the MIC; details: Stenotrophomonas maltophilia
[8] = tested on: Test Organism 27 (Streptococcus pneumoniae Type III); assay: as above
[9] = tested on: Test Organism 1 (Escherichia Coli NIHJ); assay: as above
[10] = tested on: Aeromonas salmonicida IFO 12718; assay: antimicrobial activity on bacteria which cause infectious diseases in fish
Experimental: (§2) The antimicrobial activity of the following test compounds on various test organisms listed below was determined by the serial dilution method on agar plate (Heart Infusion agar produced by Difco Co.) (see CHEMOTHERAPY 22, pp. 1126-1128 (1974)), and the minimum inhibitory concentrations (mcg/ml) obtained are shown in Table 1 below.
(§3) A sample of each test organism was prepared so that the population of the organism was 1×10^8 cells/ml (O.D. 660 mμ=0.07 to 0.16) and 1×10^6 cells/ml (which was obtained by diluting the above 1×10^8 cells/ml preparation).
(§4) In the same manner as above, the antimicrobial activity of the following compounds on various test organisms which cause infectious diseases in fish was determined.

[11] = tested on: Aeromonas hydrophila IFO 12981; assay: as above
Experimental: as §2, §3, §4

[12] = tested on: Vibrio anguillarum IFO 12710; assay: as above
Experimental: as §2, §3, §4

[13] = tested on: Aeromonas salmonicida IFO 12659; assay: as above
Experimental: as §2, §3, §4

[14] = tested on: Aeromonas hydrophila IFO 12658; assay: as above
Experimental: as §2, §3, §4

[15] = tested on: Pseudomonas fluorescens IFO 12568; assay: as above
Experimental: as §2, §3, §4

[16] = tested on: Vibrio anguillarum IFO 13266; assay: as above
Experimental: as §2, §3, §4

[17] = tested on: Pseudomonas fluorescens IFO 12180; assay: as above; details: IFO12180, read-out: Minimum Inhibitory Concentration
Experimental: as §2, §3, §4

[18] = tested on: Test Organism 21 (Bacillus subtilis PCI 219); assay: influence of the addition of horse serum on the MIC
[19] = tested on: Test Organism 17 (Pseudomonas putida IFO 13696); assay: as above
[20] = tested on: Test Organism 2 (Escherichia Coli NIHJ JC-2 (IFO 12734)); assay: as above
[21] = tested on: Yersinia enterocolitica 0-5; assay: antimicrobial activity, serial dilution method on agar plate
[22] = read-out: Minimum Inhibitory Concentration, inoculum 1 × 10^6 cells/ml
[23] = read-out: Minimum Inhibitory Concentration, inoculum 1 × 10^8 cells/ml
[24] = read-out: Minimum Inhibitory Concentration, horse serum 0%, inoculum 10^6
[25] = read-out: Minimum Inhibitory Concentration, horse serum 0%, inoculum 10^8
[26] = read-out: Minimum Inhibitory Concentration, horse serum 10%, inoculum 10^6
[27] = read-out: Minimum Inhibitory Concentration, horse serum 10%, inoculum 10^8
[28] = read-out: Minimum Inhibitory Concentration, horse serum 20%, inoculum 10^6
[29] = read-out: Minimum Inhibitory Concentration, horse serum 20%, inoculum 10^8
[30] = read-out: Minimum Inhibitory Concentration, horse serum 40%, inoculum 10^6
[31] = read-out: Minimum Inhibitory Concentration, horse serum 40%, inoculum 10^8

CC1Cc2c(N3CCNCC3)ccc3c(=O)c(C(=O)O)cn1c23 (centres unmarked) [C]
MIC ([1]; NCTC10490, read-out: Minimum Inhibitory Concentration, inoculum 1 × 10^6 cells/ml): 3.1 µg/mL (≈ 9.89 µM)
MIC ([1]; NCTC10490, read-out: Minimum Inhibitory Concentration, inoculum 1 × 10^8 cells/ml): 6.3 µg/mL (≈ 20.1 µM)
MIC [2, 22]: 50 µg/mL (≈ 160 µM)
MIC [2, 23]: 100 µg/mL (≈ 319 µM)
MIC ([3]; IFO12979, read-out: Minimum Inhibitory Concentration, inoculum 1 × 10^6 cells/ml): 0.4 µg/mL (≈ 1.28 µM)
MIC ([3]; IFO12979, read-out: Minimum Inhibitory Concentration, inoculum 1 × 10^8 cells/ml): 0.8 µg/mL (≈ 2.55 µM)
MIC ([4]; ATCC10145, read-out: Minimum Inhibitory Concentration, inoculum 1 × 10^6 cells/ml): 6.3 µg/mL (≈ 20.1 µM)
MIC ([4]; ATCC10145, read-out: Minimum Inhibitory Concentration, inoculum 1 × 10^8 cells/ml): 6.3 µg/mL (≈ 20.1 µM)
MIC ([5]; FDA209, read-out: Minimum Inhibitory Concentration, inoculum 1 × 10^6 cells/ml): 25 µg/mL (≈ 79.8 µM)
MIC ([5]; FDA209, read-out: Minimum Inhibitory Concentration, inoculum 1 × 10^8 cells/ml): 25 µg/mL (≈ 79.8 µM)
MIC [6, 22]: 6.3 µg/mL (≈ 20.1 µM)
MIC [6, 23]: 25 µg/mL (≈ 79.8 µM)
MIC ([7]; IFO12692, read-out: Minimum Inhibitory Concentration, horse serum 0%, inoculum 10^6): 1.6 µg/mL (≈ 5.11 µM)
MIC ([7]; IFO12692, read-out: Minimum Inhibitory Concentration, horse serum 0%, inoculum 10^8): 1.6 µg/mL (≈ 5.11 µM)
MIC ([7]; IFO12692, read-out: Minimum Inhibitory Concentration, horse serum 10%, inoculum 10^6): 1.6 µg/mL (≈ 5.11 µM)
MIC ([7]; IFO12692, read-out: Minimum Inhibitory Concentration, horse serum 10%, inoculum 10^8): 1.6 µg/mL (≈ 5.11 µM)
MIC ([7]; IFO12692, read-out: Minimum Inhibitory Concentration, horse serum 20%, inoculum 10^6): 0.4 µg/mL (≈ 1.28 µM)
MIC ([7]; IFO12692, read-out: Minimum Inhibitory Concentration, horse serum 20%, inoculum 10^8): 0.8 µg/mL (≈ 2.55 µM)
MIC ([7]; IFO12692, read-out: Minimum Inhibitory Concentration, horse serum 40%, inoculum 10^6): 0.4 µg/mL (≈ 1.28 µM)
MIC ([7]; IFO12692, read-out: Minimum Inhibitory Concentration, horse serum 40%, inoculum 10^8): 0.4 µg/mL (≈ 1.28 µM)
MIC [8, 24]: 3.1 µg/mL (≈ 9.89 µM)
MIC [8, 25]: 6.3 µg/mL (≈ 20.1 µM)
MIC [8, 26]: 3.1 µg/mL (≈ 9.89 µM)
MIC [8, 27]: 6.3 µg/mL (≈ 20.1 µM)
MIC [8, 28]: 3.1 µg/mL (≈ 9.89 µM)
MIC [8, 29]: 3.1 µg/mL (≈ 9.89 µM)
MIC [8, 30]: 1.6 µg/mL (≈ 5.11 µM)
MIC [8, 31]: 3.1 µg/mL (≈ 9.89 µM)
MIC [9, 24]: 12.5 µg/mL (≈ 39.9 µM)
MIC [9, 25]: 12.5 µg/mL (≈ 39.9 µM)
MIC [9, 26]: 6.3 µg/mL (≈ 20.1 µM)
MIC [9, 27]: 12.5 µg/mL (≈ 39.9 µM)
MIC [9, 28]: 6.3 µg/mL (≈ 20.1 µM)
MIC [9, 29]: 12.5 µg/mL (≈ 39.9 µM)
MIC [9, 30]: 6.3 µg/mL (≈ 20.1 µM)
MIC [9, 31]: 12.5 µg/mL (≈ 39.9 µM)
MIC ([10]; IFO12718, inoculum 10^6, read-out: Minimum Inhibitory Concentration): 0.4 µg/mL (≈ 1.28 µM)
MIC ([10]; IFO12718, inoculum 10^8, read-out: Minimum Inhibitory Concentration): 0.4 µg/mL (≈ 1.28 µM)
MIC ([11]; IFO12981, inoculum 10^6, read-out: Minimum Inhibitory Concentration): 0.2 µg/mL (≈ 0.638 µM)
MIC ([11]; IFO12981, inoculum 10^8, read-out: Minimum Inhibitory Concentration): 0.4 µg/mL (≈ 1.28 µM)
MIC ([12]; IFO12710, read-out: Minimum Inhibitory Concentration, inoculum 10^6): 1.6 µg/mL (≈ 5.11 µM)
MIC ([12]; IFO12710, read-out: Minimum Inhibitory Concentration, inoculum 10^8): 3.1 µg/mL (≈ 9.89 µM)
MIC ([13]; IFO12659, inoculum 10^6, read-out: Minimum Inhibitory Concentration): 0.2 µg/mL (≈ 0.638 µM)
MIC ([13]; IFO12659, inoculum 10^8, read-out: Minimum Inhibitory Concentration): 0.4 µg/mL (≈ 1.28 µM)
MIC ([14]; IFO12658, inoculum 10^6, read-out: Minimum Inhibitory Concentration): 0.2 µg/mL (≈ 0.638 µM)
MIC ([14]; IFO12658, inoculum 10^8, read-out: Minimum Inhibitory Concentration): 0.4 µg/mL (≈ 1.28 µM)
MIC ([15]; IFO12568, read-out: Minimum Inhibitory Concentration, inoculum 10^6): 25 µg/mL (≈ 79.8 µM)
MIC ([15]; IFO12568, read-out: Minimum Inhibitory Concentration, inoculum 10^8): 50 µg/mL (≈ 160 µM)
MIC ([16]; IFO13266, read-out: Minimum Inhibitory Concentration, inoculum 10^6): 0.2 µg/mL (≈ 0.638 µM)
MIC ([16]; IFO13266, read-out: Minimum Inhibitory Concentration, inoculum 10^8): 0.4 µg/mL (≈ 1.28 µM)
MIC [17]: 3.1 µg/mL (≈ 9.89 µM)
MIC [18, 24]: 1.6 µg/mL (≈ 5.11 µM)
MIC [18, 25]: 3.1 µg/mL (≈ 9.89 µM)
MIC [18, 26]: 1.6 µg/mL (≈ 5.11 µM)
MIC [18, 27]: 1.6 µg/mL (≈ 5.11 µM)
MIC [18, 28]: 1.6 µg/mL (≈ 5.11 µM)
MIC [18, 29]: 1.6 µg/mL (≈ 5.11 µM)
MIC [18, 30]: 0.4 µg/mL (≈ 1.28 µM)
MIC [18, 31]: 0.4 µg/mL (≈ 1.28 µM)
MIC ([19]; IFO13696, read-out: Minimum Inhibitory Concentration, horse serum 0%, inoculum 10^6): 0.4 µg/mL (≈ 1.28 µM)
MIC ([19]; IFO13696, read-out: Minimum Inhibitory Concentration, horse serum 0%, inoculum 10^8): 0.8 µg/mL (≈ 2.55 µM)
MIC ([19]; IFO13696, read-out: Minimum Inhibitory Concentration, horse serum 10%, inoculum 10^6): 0.4 µg/mL (≈ 1.28 µM)
MIC ([19]; IFO13696, read-out: Minimum Inhibitory Concentration, horse serum 10%, inoculum 10^8): 0.8 µg/mL (≈ 2.55 µM)
MIC ([19]; IFO13696, read-out: Minimum Inhibitory Concentration, horse serum 20%, inoculum 10^6): 0.4 µg/mL (≈ 1.28 µM)
MIC ([19]; IFO13696, read-out: Minimum Inhibitory Concentration, horse serum 20%, inoculum 10^8): 0.8 µg/mL (≈ 2.55 µM)
MIC ([19]; IFO13696, read-out: Minimum Inhibitory Concentration, horse serum 40%, inoculum 10^6): 0.4 µg/mL (≈ 1.28 µM)
MIC ([19]; IFO13696, read-out: Minimum Inhibitory Concentration, horse serum 40%, inoculum 10^8): 0.4 µg/mL (≈ 1.28 µM)
MIC [20, 24]: 1.6 µg/mL (≈ 5.11 µM)
MIC [20, 25]: 1.6 µg/mL (≈ 5.11 µM)
MIC [20, 26]: 1.6 µg/mL (≈ 5.11 µM)
MIC [20, 27]: 1.6 µg/mL (≈ 5.11 µM)
MIC [20, 28]: 1.6 µg/mL (≈ 5.11 µM)
MIC [20, 29]: 0.8 µg/mL (≈ 2.55 µM)
MIC [20, 30]: 0.4 µg/mL (≈ 1.28 µM)
MIC [20, 31]: 0.4 µg/mL (≈ 1.28 µM)
MIC ([21]; Yersinia enterocolitica, 05, read-out: Minimum Inhibitory Concentration, inoculum 1 × 10^6 cells/ml): 1.6 µg/mL (≈ 5.11 µM)
MIC ([21]; Yersinia enterocolitica, 05, read-out: Minimum Inhibitory Concentration, inoculum 1 × 10^8 cells/ml): 1.6 µg/mL (≈ 5.11 µM)
